In PMC11233548 (Communications Biology, 2024):
Non-standard residues stand in square brackets, D forms with d. Residues, ends and D or L forms follow the SMILES beside them. No end group written: not given here. long linker = not defined here; AEEA = NCCOCCOCC(=O)O

What was measured:
[1] = target: Gal1/B-RBD (Homo sapiens, UniProt P15056); test: Gal1/B-RBD BRET in HEK cells; format: cell-based
[2] = tested on: H-RasG12V nanoclustering; test: H-RasG12V nanoclustering-BRET in HEK cells; format: cell-based, human
[3] = tested on: Hs 578 T cells (pERK, pAkt); test: Immunoblot of EGF-induced pERK and pAkt in Hs 578 T; format: cell-based, human; details: 1–20 µM, 2 h, EGF 200 ng/mL 10 min; HRAS-G12D; n = 3–8
[4] = tested on: T24 cells (pERK, pAkt); format: cell-based, human; details: n = 3–8
[5] = tested on: MIA PaCa-2 cells (pERK, pAkt); test: Immunoblot of EGF-induced pERK and pAkt in MIA PaCa-2; format: cell-based, human; details: 2 h, EGF 200 ng/mL 10 min; KRAS-G12C; n = 3–8
[6] = tested on: HEK cells (pERK, pAkt); format: cell-based, human; details: 2 h, EGF 200 ng/mL 10 min; n = 3–8
[7] = tested on: Hs 578 T cells; test: 2D cell viability (alamarBlue), Hs 578 T; format: cell-based, human; details: 48 h treatment, n = 3
[8] = tested on: T24 cells; test: 2D cell viability (alamarBlue), T24; format: cell-based, human; details: 48 h treatment, n = 3
[9] = tested on: MIA PaCa-2 cells; test: 2D cell viability (alamarBlue), MIA PaCa-2; format: cell-based, human; details: 48 h treatment, n = 3
[10] = tested on: Hs 578 T, T24, MIA PaCa-2, and HEK cells; test: Drug sensitivity score DSS3 from viability data; format: cell-based, human; details: 48 h; Fig. 6e
Protocol: The cells were seeded in low attachment, suspension cell culture 96-well plates (Greiner, #655185). About 2000 T24, MIA PaCa-2, and HEK cells and 5000 Hs 578 T cells were seeded per well in a 50 µL complete growth medium. 24 h later, the cells were treated with 50 µL 2× peptide diluted in the growth medium or 0.2% (v/v) of the positive control, benzethonium chloride stock at 100 mM in H2O (Sigma-Aldrich, #B8879). […] Using a CLARIOstar plate reader the fluorescence signal (λexcitation 560 ± 5 nm and λemission 590 ± 5 nm) was recorded. The florescence signal was normalized against the negative control, here DMSO in buffer, representing 100% viability. Additionally, the data was analyzed using Breeze 2.0 to determine a drug sensitivity score (DSS), a normalized area under the curve (AUC). Here we plot only one of the output values from the Breeze pipeline, the DSS3 value, which was calculated as DSS3=DSS2x2−x1/Cmax−Cmin where DSS2 is given by the equation DSS2=DSS1/loga
And DSS1 is given by the equation DSS1=AUC−t(x2−x1)/(100−t)(Cmax−Cmin)
After dose–response inhibition data fitting with a logistic function, the area under the curve (AUC) was determined. The activity threshold (t) was set to ≥10%. The maximum (Cmax) and minimum (Cmin) concentrations used for screening of the inhibitors, with Cmax = x2 and x1 concentration with minimal activity t. […]

[11] = tested on: H-RasG12V nanoclustering; test: Electron microscopy-based analysis of H-RasG12V nanoclustering in BHK cells; format: cell-based, baby hamster kidney (BHK) cells; details: membrane sheets of Gal1-expressing BHK cells; n = 15
Excerpt: To quantify the nanoclustering of a component integral to the plasma membrane (PM), the apical PM sheets of baby hamster kidney (BHK) cells expressing a GFP-tagged H-Ras construct were fixed with 4% (w/v) PFA and 0.1% (w/v) glutaraldehyde. GFP anchored to the PM sheets was probed with 4.5 nm gold particles pre-coupled to anti-GFP antibody. Following embedment with methyl cellulose, the PM sheets were imaged using transmission electron microscopy (JEOL JEM-1400). Using the coordinates of every gold particle, Ripley’s K-function calculated the extent of nanoclustering of gold particles within a selected 1 μm^2 PM area: K(r)=An^−2∑i≠jwij1(∥xi−xj∥≤r) Lr−r=Kr/π−r where n gold particles populate in an intact area of A; r is the length between 1 and 240 nm; || ^. || indicates Euclidean distance where 1(^.) = 1 if ||xi − xj|| ≤ r and 1(^.) = 0 if ||xi − xj|| > r; K(r) specifies the univariate K-function. wij^−1 is a parameter used for an unbiased edge correction and characterizes the proportion of the circumference of a circle that has the center at xi and radius ||xi-xj||. Monte Carlo simulations estimate the 99% confidence interval (99% C.I.), which is then used to linearly transform K(r) into L(r) − r. On a nanoclustering curve of L(r) − r vs. r, the peak L(r) − r value is used as summary statistics for nanoclustering and is termed as Lmax. […]

[12] = tested on: B-Raf; test: SNAP-tag mediated pull-down from HEK lysates, B-Raf; format: binding, human cell line HEK293-EBNA; details: lysates of Gal1-transfected HEK cells; n = 4
Protocol: (§1) For the pull-down of interactors of L5UR-SNAP and control constructs, HEK293 EBNA cells were plated on 10 cm dishes. For each dish, 5 µg of pDest305-CMV-hGal1 and pEF-L5UR-SNAP, pEF-mutL5UR-SNAP, or pEF-SNAP were transfected. Transfection was done at ≥70% confluency using 2 µL jetPRIME per 1 µg DNA transfected, according to the manufacturer’s instructions. After about 24 h, the growth medium was removed, cells were rinsed twice in cold PBS, and each dish was lysed in 1 mL lysis buffer, consisting of 20 mM HEPES pH 7.5, 4 mM β-mercaptoethanol, 0.05% Igepal, 1× Protease Inhibitor (Thermo Scientific, #A32955) and 1× PhosSTOP (Roche, #04 906 837 001). The cells were scraped and transferred to Eppendorf tubes, then incubated on ice for 30 min, with occasional mixing by inverting the tube. The lysate was cleared by centrifugation for 15 min at 4 °C and 16,363 rcf. Cleared lysate was transferred to a clean tube, 15 µL sample was withdrawn as “Input” for Western blot analysis, and 25 µL of SNAP-capture magnetic beads (New England Biolabs, #S9145S) suspension (diluted 1:1 in lysis buffer) was added. The samples were further incubated for 2 h at room temperature (20–25 °C) on a rotating wheel. […] The samples were resolved on 4–20% SDS-PAGE gels in Tris-Gly buffer and analyzed by Western blotting. […]

[13] = tested on: C-Raf; test: SNAP-tag mediated pull-down from HEK lysates, C-Raf; format: binding, human cell line HEK293-EBNA; details: lysates of Gal1-transfected HEK cells; n = 4
Protocol: as §1

[14] = tested on: catalytic subunit of PI3Kα; test: SNAP-tag mediated pull-down from HEK lysates, PI3Kα catalytic subunit; format: binding, human cell line HEK293-EBNA; details: lysates of Gal1-transfected HEK cells; n = 4
Protocol: as §1

[15] = tested on: ASPP2; test: SNAP-tag mediated pull-down from HEK lysates, ASPP2; format: binding, human cell line HEK293-EBNA; details: lysates of Gal1-transfected HEK cells; n = 4
Protocol: as §1

[16] = tested on: RASSF7; test: SNAP-tag mediated pull-down from HEK lysates, RASSF7; format: binding, human cell line HEK293-EBNA; details: lysates of Gal1-transfected HEK cells; n = 4
Protocol: as §1

[17] = tested on: Gal1; test: SNAP-tag mediated pull-down from HEK lysates, Gal1; format: binding, human cell line HEK293-EBNA; details: lysates of Gal1-transfected HEK cells
Protocol: as §1

[18] = tested on: A-RBD-D75A; test: BRET-titration Gal1/A-RBD-D75A; format: cell-based, human; details: versus wild-type, n = 3
Protocol: We employed the BRET2 system where RLuc8 and GFP2 luminophores were predominantly used as the donor and acceptor, respectively, with coelenterazine 400a as the substrate. A CLARIOstar plate reader from BMG Labtech was used for BRET and fluorescence intensity measurement. The BRET protocol was adapted as described by us[73].
In brief, 150,000–200,000 HEK293-EBNA cells were seeded per well of a 12-well plate and grown for 24 h in 1 mL of complete DMEM. The next day, the cells were transfected with ~1 µg of plasmid DNA per well using a 3 µL jetPRIME transfection reagent. For the donor saturation titration, 25 ng of the donor plasmid was transfected with an acceptor plasmid concentration ranging from 25 to 1000 ng. […]
First, the fluorescence intensity of GFP2 was measured (λexcitation 405 ± 10 nm and λemission 515 ± 10 nm), which is directly proportional to the acceptor expression (RFU). Then 10 µM of coelenterazine 400a (GoldBio, #C-320) was added to the cells, and BRET readings were recorded simultaneously at λemission 410 ± 40 nm (RLU) and 515 ± 15 nm (BRET signal). Emission intensity measured at 410 nm is directly proportional to the donor expression. The raw BRET ratio was calculated as the ratio of BRET signal/RLU. […] The relative expression was calculated as the ratio of RFU/RLU. […]

[19] = tested on: B-Raf; test: Split-luciferase KinCon B-Raf biosensor; format: cell-based; details: expression 48 h, HEK cells; n = 3
Protocol: HEK 293-EBNA cells were seeded in a 12-well plate (Greiner Bio-One, #665180) in 1 ml complete DMEM and grown for 24 h. The next day 0.5 µg of KinCon sensor plasmid pcDNA-RlucF1-BRAF-RlucF2 was transfected along with 0.1–0.5 µg of modulator plasmid encoding either SNAP-H-RasG12V or Gal1) using jetPRIME as per manufacturer protocol; pcDNA3.1(−) Thermo Fisher Scientific, #V79520) was used to buffer the total amount of plasmid load per well to 1 µg. After 48 h of expression cells were collected and washed in PBS. Cells from one well of the 12-well plate were resuspended in 200 µL of PBS and 2× 90 µL were pipetted into a white 96-well plate (Nunc, Thermo Fisher Scientific, #236108). Then coelenterazine h was added to a final concentration of 5 µM and the luminescence signal at 480 ± 10 nm was collected for 10 s. The basically background-free signal was normalized against the signal without modulator plasmid.

[20] = target: RBD of Raf proteins; parameters: method as in PMID 27087647; details: direct binding; read-out: KD, Gal1 to RBD of Raf proteins; cited from earlier work
[21] = target: Gal1; parameters: method as in PMID 24569991, PMID 7890630; details: dimerization; read-out: KD, Gal1 dimer; cited from earlier work

Gal1/B-RBD, sequence (P15056 155-227): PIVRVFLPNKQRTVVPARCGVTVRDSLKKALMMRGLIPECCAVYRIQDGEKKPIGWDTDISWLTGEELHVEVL

Compound: CC(=O)NCC(=O)N[C@@H](CCCNC(=N)N)C(=O)N[C@@H](CCCCN)C(=O)N[C@@H](CCCCN)C(=O)N[C@@H](CCCNC(=N)N)C(=O)N[C@@H](CCCNC(=N)N)C(=O)N[C@@H](CCC(N)=O)C(=O)N[C@@H](CCCNC(=N)N)C(=O)N[C@@H](CCCNC(=N)N)C(=O)N[C@@H](CCCNC(=N)N)C(=O)N1CCC[C@H]1C(=O)N[C@@H](CCC(N)=O)C(=O)NCCOCCOCC(=O)N[C@@H](CO)C(=O)N[C@@H](CCCNC(=N)N)C(=O)N[C@@H](CO)C(=O)N[C@@H](CO)C(=O)N[C@@H](CC(C)C)C(=O)N[C@@H](CCCNC(=N)N)C(=O)N[C@@H](CO)C(=O)N[C@@H](CCCNC(=N)N)C(=O)N[C@@H](Cc1c[nH]c2ccccc12)C(=O)NCC(=O)N[C@@H](CCCNC(=N)N)C(=O)N[C@@H](Cc1ccccc1)C(=O)N[C@@H](CC(C)C)C(=O)N[C@@H](CC(C)C)C(=O)N[C@@H](CCC(N)=O)C(=O)N[C@@H](CCCNC(=N)N)C(=O)NCC(=O)N[C@@H](CO)C(=O)N[C@@H](Cc1c[nH]c2ccccc12)C(=O)N[C@H](C(=O)NCC(=O)N1CCC[C@H]1C(=O)N[C@@H](CCCNC(=N)N)C(N)=O)[C@@H](C)O [TAT-L5URcore] (Ac-GRKKRRQRRRPQ[AEEA]SRSSLRSRWGRFLLQRGSWTGPR-NH2)
- EC50 [1]: 16 ± 1 µM
- EC50 ([2]; peptide added to HEK cells, 2 h incubation, 37 °C, donor:acceptor 1:5, 200 ng Gal1 plasmid, n = 3): 19 ± 1 µM
- EGF-induced pAkt levels, Hs 578 T [3]: reduced EGF-induced cellular pERK-and pAkt-levels in a dose-dependent manner
- EGF-induced pERK levels, Hs 578 T [3]: reduced EGF-induced cellular pERK-and pAkt-levels in a dose-dependent manner
- EGF-induced pAkt levels, T24 [4]: reduced EGF-induced cellular pERK-and pAkt-levels in a dose-dependent manner
- EGF-induced pERK levels, T24 [4]: reduced EGF-induced cellular pERK-and pAkt-levels in a dose-dependent manner
- pAkt levels, MIA PaCa-2 [5]: pAkt-levels were reduced at 20 µM
- pERK levels, MIA PaCa-2 [5]: pERK remained unaffected
- pAkt levels, HEK [6]: slightly induced by TAT-L5URcore, as were pAkt-levels
- pERK levels, HEK [6]: slightly induced
- proliferation/viability, Hs 578 T [7]: specifically reduced by TAT-L5URcore
- proliferation/viability, T24 [8]: specifically reduced by TAT-L5URcore
- proliferation/viability, MIA PaCa-2 [9]: this was also observed for KRAS-mutant MIA PaCa-2
- anti-proliferative effect (DSS3) [10]: higher anti-proliferative effect of TAT-L5URcore as compared to TAT-mutL5URcore

Compound: L5UR-SNAP: genetic construct with SNAP-tag added via a long linker to the C-terminus of L5UR (LLRPTAASQSRALGPGAPGGSSRSSLRSRWGRFLLQRGSWTGPRCWPRGFQS-{long linker-SNAP‑tag}; reading uncertain)
- effect of construct expression on Gal1/B-RBD BRET ([1]; expression (48 h), donor:acceptor 1:10, HEK, n = 3): dose-dependently decreased BRET between Gal1 and the B-RBD
- reduction of H-RasG12V nanoclustering-BRET ([2]; expression (48 h), co-transfection of 200 ng Gal1 plasmid, donor:acceptor 1:5, n = 3, Fig. 3c): ~ 33%
- effect of construct expression on H-RasG12V nanoclustering-BRET ([2]; expression (48 h), with co-transfection of 200 ng Gal1 plasmid, donor:acceptor 1:5, n = 3): decreased Gal1-enhanced H-RasG12V nanoclustering-BRET to a similar extent as the untagged L5UR
- disruption of H-RasG12V nanoclustering (Lmax) [11]: The disruption of H-RasG12V nanoclustering specifically by L5UR-SNAP
- pull-down of B-Raf [12]: pulled down
- pull-down of C-Raf [13]: pulled down
- pull-down of catalytic subunit of PI3Kα [14]: pulled down
- pull-down of ASPP2 [15]: it was pulled down by L5UR-SNAP
- pull-down of RASSF7 [16]: as were its two RA-domain containing interaction partners, RASSF7 and RASSF9
- pull-down of Gal1 [17]: does under those conditions not interact with Gal1

Compound: Gal1: galectin-1, H-Ras nanocluster scaffold
- effect of Gal1 expression on H-RasG12V nanoclustering-BRET ([2]; expression 48 h, donor:acceptor 1:5, n = 4): increased H-RasG12V nanoclustering-BRET in a dose-dependent manner
- BRETtop, Gal1/A-RBD-D75A [18]: significantly reduced
- luminescence signal of KinCon B-Raf biosensor [19]: likewise reduced the luminescence signal
- Kd [20]: 0.106 ± 0.04 µM
- Kd [21]: 7 µM
